Data on 19 compounds can be found in US12428427B2, “Methods and compositions for targeting PD-L1” (Aligos Therapeutics, Inc., priority 2021, dated 2025).

Test [1] has as its target PDL1/PD1 (Homo sapiens, UniProt Q9NZQ7). As to the kind of experiment: PDL1/PD1 Binding Assay. As to conditions: PDL1-6×His 0.3 nM, PD1-Fc-Avi-Biotin 2.5 nM, Acceptor/Donor beads; read-out: PD-1/PD-L1 PPI IC50. Here is the method:
Compounds to be tested were serially diluted in DMSO, and further diluted in assay buffer (25 mM Hepes pH 7.4, 150 mM NaCl, 0.005% Tween 20, BSA 0.01%). Diluted compounds were added to the wells with final concentration of DMSO at 1%. PDL1-6×His protein was added to the wells, mixed well with compound. The plates were incubated for 30 min at room temperature. PD1-Fc-Avi-Biotin protein was added to the wells. Final concentration of PDL1 and PD1 protein is 0.3 nM and 2.5 nM, respectively. After a binding time of 30 min at room temperature, Anti-6×His Acceptor beads (final concentration 20 ug/ml) were added to the wells, and the incubation continued for 1 h. Streptavidin Donor beads (final concentration 20 ug/mL) were added at reduced light. The plates were sealed with foil and incubated in the dark for additional 1 h or overnight before reading on an Envision reader. The IC50 values were determined by fitting the curves using a four-parameter equation in Graphpad Prism 8.

Test [2] addresses T1, PD-1/PD-L1 interaction (Homo sapiens, UniProt Q9NZQ7).
T1 construct: expressed in transfected cells; Jurkat cells (PD-1 plus NFAT-luciferase)
Briefly: PD-1/PD-L1 NFAT Reporter Assay. Format: cell-based. As to conditions: co-culture of PD-L1 expressing CHO cells and PD-1 overexpressing Jurkat cells, 6 hrs, NFAT luciferase. As for the experimental part:
Blocking the PD-1/PD-L1 interaction will release the inhibitory signal and results in TCR signaling and NFAT-mediated luciferase activity.
CHO cells expressing surface-bound anti-CD3 antibodies and PD-L1 were first seeded overnight and treated with the compounds. Jurkat cells overexpressing PD-1 and a luciferase construct under NFAT promoter were then immediately seeded on the monolayer of CHO cells. The co-culture was then incubated for 6 hrs at 37° C. Luciferase activity was assessed by adding the ONE-Glo reagent and measuring luminescence with a plate reader. EC50 values were determined from the fit of the dose-response curves.

pEC50, pIC50: −log10 of the molar value. Where only a bound is given, the exact number is not on record here.

Chain of PDL1/PD1 (Q9NZQ7 19-238 limits assumed): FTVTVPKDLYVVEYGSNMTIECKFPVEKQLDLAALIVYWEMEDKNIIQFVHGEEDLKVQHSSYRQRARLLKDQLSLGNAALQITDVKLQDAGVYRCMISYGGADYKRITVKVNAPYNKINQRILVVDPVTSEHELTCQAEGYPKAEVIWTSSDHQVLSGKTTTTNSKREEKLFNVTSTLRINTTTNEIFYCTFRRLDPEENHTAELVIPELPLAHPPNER
T1 sequence (Q9NZQ7 19-290): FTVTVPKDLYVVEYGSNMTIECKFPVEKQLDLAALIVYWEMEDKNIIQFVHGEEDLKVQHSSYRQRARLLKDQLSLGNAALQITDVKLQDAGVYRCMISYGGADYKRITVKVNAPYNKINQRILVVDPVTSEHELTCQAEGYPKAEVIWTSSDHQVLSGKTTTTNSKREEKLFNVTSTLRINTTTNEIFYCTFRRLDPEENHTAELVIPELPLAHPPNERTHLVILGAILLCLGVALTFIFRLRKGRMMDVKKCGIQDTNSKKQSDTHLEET

By pEC50 is commonly meant the EC50 on a negative log10 scale, so that one unit is a factor of ten. Turning to `COc1nc(-c2cccc(-c3cccc(NC(=O)c4ccnn(C)c4=O)c3C)c2C)ccc1CNC(C)(C)CO` [Compound C-73], the pIC50 in test [1] was at least 8.00. In test [2], this compound showed a pEC50 of under 5.30.
Taken in the same sequence, the figures for `COc1nc(-c2cccc(-c3cccc(NC(=O)c4ccnn(C)c4=O)c3Cl)c2Cl)ccc1CNCC(C)(C)C(=O)O` [Compound C-35] were at least 8.00 and 7.00 to 8.00.
Take `COc1nc(-c2cccc(-c3cccc(NC(=O)c4ccnn(C)c4=O)c3C)c2Cl)cnc1CN1CC[C@H](O)C1` [Compound C-87]: the pIC50 in test [1] is at least 8.00. The pEC50 in test [2] was at least 8.00.
For the compound `COc1nc(-c2cccc(-c3cccc(NC(=O)c4ccnn(C)c4=O)c3Cl)c2Cl)ccc1CN1CC[C@H](C(=O)O)C1` [Compound C-17], the pIC50 in test [1] is at least 8.00. The compound further showed a pEC50 in test [2] of 7.00 to 8.00.
With `COc1nc(-c2cccc(-c3cccc(NC(=O)c4ccnn(C)c4=O)c3Cl)c2Cl)ccc1CN1CC[C@@H](C(=O)O)C1` [Compound C-16], in test [1], the pIC50 was at least 8.00. In test [2], this compound gave a pEC50 of 7.00 to 8.00.
The matching figures for `COc1nc(-c2cccc(-c3cccc(NC(=O)c4ccnn(C)c4=O)c3Cl)c2Cl)c(F)cc1CN[C@@H]1CCOC[C@@H]1O` [Compound C-75]: at least 8.00 and at least 8.00.
Consider `COc1nc(-c2cccc(-c3cccc(NC(=O)c4ccnn(C)c4=O)c3Cl)c2Cl)ccc1CN1C(=O)O[C@H]2COCC[C@H]21` [Compound E-1], for which, in test [1], the pIC50 was at least 8.00. The compound also gave a pEC50 in test [2] of under 5.00.
`COc1nc(-c2cccc(-c3cccc(NC(=O)c4ccnn(C)c4=O)c3Cl)c2Cl)ccc1CNCCCC(=O)O` [Compound C-25]: the pIC50 in test [1] was at least 8.00. For the same compound, in test [2], the pEC50 was 7.00 to 8.00.
Take `COc1nc(-c2cccc(-c3cccc(NC(=O)c4ccnn(C)c4=O)c3Cl)c2Cl)ccc1CNC[C@H](C)O` [Compound C-3]: the pIC50 in test [1] was at least 8.00. In test [2], this compound gave a pEC50 of 7.00 to 8.00.
As to `COc1nc(-c2cccc(-c3cccc(NC(=O)c4ccnn(C)c4=O)c3Cl)c2Cl)ccc1CN1C[C@H](C(=O)O)C(C)(C)C1` [Compound C-31], in test [1], the pIC50 was at least 8.00. In addition, the pEC50 in test [2] was 7.00 to 8.00.
Turning to `COc1nc(-c2cccc(-c3cccc(NC(=O)c4ccnn(C)c4=O)c3Cl)c2Cl)cnc1CNC[C@@H]1CCC(=O)N1` [Compound B-1], the pIC50 in test [1] was at least 8.00. Further, the pEC50 in test [2] was 7.00 to 8.00.
`COc1nc(-c2cccc(-c3cccc(NC(=O)c4ccnn(C)c4=O)c3Cl)c2Cl)ccc1CN1CC(CC(=O)O)C1` [Compound C-42]: the pIC50 in test [1] is at least 8.00. This compound had a pEC50 in test [2] of 7.00 to 8.00.
With `COc1nc(-c2cccc(-c3cccc(NC(=O)c4ccnn(C)c4=O)c3C)c2Cl)ccc1CNC[C@@H]1CCC(=O)N1` [Compound B-6], in test [1], the pIC50 was at least 8.00. The same compound gave a pEC50 in test [2] of at least 8.00.
As for `CCOC(=O)[C@@H]1CCN(Cc2ccc(-c3cccc(-c4cccc(NC(=O)c5ccnn(C)c5=O)c4C)c3Cl)nc2OC)C1` [Compound C-57], the pIC50 in test [1] is at least 8.00. Further, in test [2], the negative logarithm of the EC50 (pEC50) was 7.00 to 8.00.
In the case of `COc1nc(-c2cccc(-c3cccc(NC(=O)c4ccnn(C)c4=O)c3Cl)c2Cl)ncc1CN[C@@H]1CCOC[C@@H]1O` [Compound C-81], the pIC50 in test [1] is at least 8.00. Also, the pEC50 in test [2] was at least 8.00.
`COc1nc(-c2cccc(-c3cccc(NC(=O)c4ccnn(C)c4=O)c3Cl)c2Cl)ccc1CNC[C@H](C)C(=O)O` [Compound C-36]: the pIC50 in test [1] is at least 8.00. This compound also gave a negative-log EC50 (pEC50) in test [2] of 7.00 to 8.00.
The matching figures for `COc1nc(-c2cccc(-c3cccc(NC(=O)c4ccnn(C)c4=O)c3Cl)c2Cl)ccc1CN1CC(O)(C(=O)O)C1` [Compound C-41]: at least 8.00 and 7.00 to 8.00.
In the case of `COc1nc(-c2cccc(-c3cccc(NC(=O)c4ccnn(C)c4=O)c3Cl)c2Cl)ccc1CNC1CC1` [Compound C-6], in test [1], the pIC50 was at least 8.00. This compound had a pEC50 in test [2] of 7.00 to 8.00.
In the case of `COc1nc(-c2cccc(-c3cccc(NC(=O)c4ccnn(C)c4=O)c3Cl)c2Cl)ccc1CN1CC(C)(C(=O)O)C1` [Compound C-20], in test [1], the pIC50 was at least 8.00. The pEC50 in test [2] was 7.00 to 8.00.
